pKi: −log10 of the molar value.
Target: T1, Papain (Carica papaya, UniProt P00784)
T1 sequence (P00784 whole entry): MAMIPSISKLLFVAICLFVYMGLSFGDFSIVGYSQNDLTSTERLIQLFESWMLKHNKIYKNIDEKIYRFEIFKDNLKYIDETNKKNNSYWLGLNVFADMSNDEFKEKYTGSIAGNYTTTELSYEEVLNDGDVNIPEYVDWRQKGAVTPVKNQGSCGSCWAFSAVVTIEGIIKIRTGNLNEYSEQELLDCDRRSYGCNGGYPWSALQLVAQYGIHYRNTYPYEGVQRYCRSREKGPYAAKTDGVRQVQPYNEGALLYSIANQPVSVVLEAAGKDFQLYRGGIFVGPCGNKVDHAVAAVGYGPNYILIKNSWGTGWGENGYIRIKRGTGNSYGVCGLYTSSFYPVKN
Experiment: Kinetic Assay
Procedure: To characterize the type and extent inhibition of papain by fukugetin, papain (0.04 nM) was incubated with four concentrations of fukugetin (1.5, 3, 6 and 12μM). For cruzain, enzyme concentration was 12 nM and inhibitor concentrations varied from 1 μM to 10 μM. Analysis of enzyme kinetic data was carried out using the Lineweaver-Burk plot30 in Grafit 5.0 software. Hydrolytic activity was measured […], mixing fukugetin and enzymes by addition growingconcentrations of Cbz-Phe-Arg-MCA (0.5-22 μM).

- pKi: 4.87
SMILES: O=C1c2c(O)cc(O)cc2OC(c2ccc(O)cc2)C1c1c(O)cc(O)c2c(=O)cc(-c3ccc(O)c(O)c3)oc12 (stereo unspecified) [Fukugetin]

— BindingDB's records for doi:10.3109/14756366.2012.668539 (Federal University of São Paulo, 2013)
